Measurements reported in patent US12275745B2, “Therapeutic compounds and methods of use” (Genentech, Inc., priority 2021, dated 2025).
pIC50: −log10 of the molar value.

Tests used:
[1] = biological target: TEAD1 (Homo sapiens, UniProt P28347); assay: TR-FRET (Lipid HTRF) TEAD lipid pocket probe displacement assay, TEAD1; format: binding; conditions: His-tagged TEAD1, biotinylated lipid pocket probe, 4 hours
Description: (§1) His-tagged TEAD proteins are pre-incubated with TEAD project compounds for 30 minutes or 4 hours at room temperature. Biotinylated lipid pocket probes are then added to the TEAD/Compound mixture and incubated for 60 minutes at room temperature. The lipid pocket probe competes with the test compound for the TEAD lipid pocket until equilibrium is reached. After 60 minutes, Europium labelled anti-His (Perkin Elmer #AD0110) and XL665 labelled streptavidin (CIS Bio 610SAXAC) are added to the TEAD/test compound/lipid pocket mixture and incubated for 30 minutes or 4 hours. TR-FRET values are then measured using an EnVision multi-label plate reader (Perkin Elmer Cat #2104-001 0A.) If the lipid pocket probe binds to TEAD as expected, a TR-FRET signal results from the proximity of anti-His Eu and XL665. If a TEAD lipid pocket binder such as binds and displaces the lipid pocket probe, the disruption of the TEAD:probe interaction results in a decrease in TR-FRET signal. The potency of compounds as TEAD lipid pocket binders is determined by IC50 value generated using a non-linear 4 parameter curve fit.

[2] = biological target: TEAD4 (Homo sapiens, UniProt Q15561); assay: TR-FRET (Lipid HTRF) TEAD lipid pocket probe displacement assay, TEAD4; format: binding; conditions: His-tagged TEAD4, biotinylated lipid pocket probe, 4 hours
Chain of TEAD4 (Q15561 whole entry, species assumed): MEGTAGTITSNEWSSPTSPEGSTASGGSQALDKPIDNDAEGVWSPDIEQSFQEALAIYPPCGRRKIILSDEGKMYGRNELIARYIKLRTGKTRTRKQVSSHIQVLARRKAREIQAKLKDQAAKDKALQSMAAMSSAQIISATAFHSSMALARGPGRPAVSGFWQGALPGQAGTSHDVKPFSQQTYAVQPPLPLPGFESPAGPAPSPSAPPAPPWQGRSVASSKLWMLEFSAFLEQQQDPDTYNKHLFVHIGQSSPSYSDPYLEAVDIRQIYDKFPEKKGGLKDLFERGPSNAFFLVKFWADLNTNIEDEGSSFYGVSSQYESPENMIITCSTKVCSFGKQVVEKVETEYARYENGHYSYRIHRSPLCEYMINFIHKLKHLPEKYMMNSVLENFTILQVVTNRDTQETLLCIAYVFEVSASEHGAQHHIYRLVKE
Description: as §1

[3] = biological target: TEAD2 (Homo sapiens, UniProt Q15562); assay: biochemical;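 note: TR-FRET competition assay with His-tagged TEAD protein and a biotinylated lipid pocket probe, where probe displacement by compound lowers the signal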
Chain of TEAD2 (Q15562 whole entry, species assumed): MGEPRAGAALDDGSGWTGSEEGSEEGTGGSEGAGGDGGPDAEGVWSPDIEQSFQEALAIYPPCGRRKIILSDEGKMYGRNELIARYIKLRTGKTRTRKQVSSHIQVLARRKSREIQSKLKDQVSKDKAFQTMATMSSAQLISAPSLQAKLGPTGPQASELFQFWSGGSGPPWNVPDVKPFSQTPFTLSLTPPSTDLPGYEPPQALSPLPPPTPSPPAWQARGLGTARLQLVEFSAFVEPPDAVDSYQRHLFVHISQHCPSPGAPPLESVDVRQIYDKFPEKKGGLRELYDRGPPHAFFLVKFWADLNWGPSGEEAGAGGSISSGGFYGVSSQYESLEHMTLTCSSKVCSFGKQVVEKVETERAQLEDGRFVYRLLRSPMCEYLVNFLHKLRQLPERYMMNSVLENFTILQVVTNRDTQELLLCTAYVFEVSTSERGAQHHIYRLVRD

[4] = biological target: TEAD3 (Homo sapiens, UniProt Q99594); assay: TR-FRET (Lipid HTRF) TEAD lipid pocket probe displacement assay, TEAD3; format: binding; conditions: His-tagged TEAD3, biotinylated lipid pocket probe, 4 hours
Chain of TEAD3 (Q99594 whole entry, species assumed): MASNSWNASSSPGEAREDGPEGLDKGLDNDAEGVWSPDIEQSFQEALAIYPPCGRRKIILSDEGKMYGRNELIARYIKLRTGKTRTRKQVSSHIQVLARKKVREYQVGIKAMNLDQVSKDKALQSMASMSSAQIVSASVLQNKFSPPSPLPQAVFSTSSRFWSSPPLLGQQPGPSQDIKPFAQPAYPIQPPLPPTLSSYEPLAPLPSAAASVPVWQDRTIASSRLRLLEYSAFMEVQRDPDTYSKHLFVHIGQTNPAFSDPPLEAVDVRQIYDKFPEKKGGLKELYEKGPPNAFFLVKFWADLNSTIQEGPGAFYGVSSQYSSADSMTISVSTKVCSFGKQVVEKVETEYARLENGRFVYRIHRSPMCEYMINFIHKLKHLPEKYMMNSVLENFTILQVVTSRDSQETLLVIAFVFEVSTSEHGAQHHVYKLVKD

Chain of TEAD1 (P28347 whole entry, species assumed): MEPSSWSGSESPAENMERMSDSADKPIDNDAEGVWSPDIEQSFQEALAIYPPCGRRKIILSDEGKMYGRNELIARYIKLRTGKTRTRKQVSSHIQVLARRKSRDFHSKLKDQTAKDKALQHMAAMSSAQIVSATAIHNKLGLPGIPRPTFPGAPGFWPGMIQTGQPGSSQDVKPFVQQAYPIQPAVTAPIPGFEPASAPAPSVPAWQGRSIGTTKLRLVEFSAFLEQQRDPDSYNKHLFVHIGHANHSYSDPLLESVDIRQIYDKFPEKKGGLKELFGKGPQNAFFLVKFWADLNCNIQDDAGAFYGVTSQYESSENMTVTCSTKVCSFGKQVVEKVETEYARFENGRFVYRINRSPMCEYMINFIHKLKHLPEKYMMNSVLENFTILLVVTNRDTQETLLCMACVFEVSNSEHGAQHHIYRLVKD

Compound: C=CC(=O)N(C)Cc1cc(-c2ccc(OC(F)(F)F)cc2)c2c(c1[C@H](O)CO)CCO2 (single isomer, unassigned) [Compound 55]
- pIC50 [1]: 7.70
- pIC50 [2]: 8.14
- pIC50 [3]: 8.36
- pIC50 [4]: 6.62

Compound: C=CC(=O)N(C)Cc1cc(-c2ccc(OC(F)(F)F)cc2)c2c(c1[C@@H](O)CO)CCO2 (single isomer, unassigned) [Compound 56]
- pIC50 [1]: 7.32
- pIC50 [2]: 7.89
- pIC50 [3]: 7.46
- pIC50 [4]: 7.00

Compound: C=CC(=O)NCc1cc(-c2ccc(OC(F)(F)F)cc2)c2nccnc2c1[C@@H](C)O (single isomer, unassigned) [Compound 82]
- pIC50 [1]: 7.16
- pIC50 [2]: 6.62
- pIC50 [3]: 7.82
- pIC50 [4]: 5.74

Compound: C=CC(=O)NCc1cc(-c2ccc(OC(F)(F)F)cc2)c2nccnc2c1[C@H](C)O (single isomer, unassigned) [Compound 83]
- pIC50 [1]: 7.36
- pIC50 [2]: 7.02
- pIC50 [3]: 8.22
- pIC50 [4]: 6.72

Compound: C=CC(=O)NCc1cc(-c2ccc(OC(F)(F)F)cc2)c2c(c1[C@H](O)[C@H](C)O)CCO2 (single isomer, unassigned) [Compound 89]
- pIC50 [1]: 6.80
- pIC50 [2]: 6.82
- pIC50 [3]: 7.47
- pIC50 [4]: 5.32

Compound: C=CC(=O)NCc1cc(-c2ccc(OC(F)(F)F)cc2)c2c(c1[C@@H](O)[C@@H](C)O)CCO2 (single isomer, unassigned) [Compound 90]
- pIC50 [1]: 6.77
- pIC50 [2]: 7.20
- pIC50 [3]: 7.54
- pIC50 [4]: 6.40

Compound: C=CC(=O)NCc1cc(-c2ccc(OC(F)(F)F)cc2)c2c(c1[C@H](O)CC#N)CCO2 (single isomer, unassigned) [Compound 91]
- pIC50 [1]: 6.85
- pIC50 [2]: 7.20
- pIC50 [3]: 7.47
- pIC50 [4]: 4.96

Compound: C=CC(=O)NCc1cc(-c2ccc(OC(F)(F)F)cc2)c2c(c1[C@@H](O)CC#N)CCO2 (single isomer, unassigned) [Compound 92]
- pIC50 [1]: 6.12
- pIC50 [2]: 6.47
- pIC50 [3]: 7.80
- pIC50 [4]: 5.80

Compound: C=CC(=O)NCc1cc(-c2ccc(OC(F)(F)F)cc2)c2ncoc2c1[C@H](O)CO (single isomer, unassigned) [Compound 105]
- pIC50 [1]: 6.89
- pIC50 [2]: 7.05
- pIC50 [3]: 7.52
- pIC50 [4]: 7.13

Compound: C=CC(=O)NCc1cc(-c2ccc(OC(F)(F)F)cc2)c2ncoc2c1[C@@H](O)CO (single isomer, unassigned) [Compound 106]
- pIC50 [1]: 6.74
- pIC50 [2]: 6.74
- pIC50 [3]: 7.62
- pIC50 [4]: 6.00

Compound: C=CC(=O)N(C)Cc1cc(-c2ccc(OC(F)(F)F)cc2)c2ncoc2c1[C@H](O)CO (single isomer, unassigned) [Compound 107]
- pIC50 [1]: 7.00
- pIC50 [2]: 7.44
- pIC50 [3]: 7.70
- pIC50 [4]: 6.11

Compound: C=CC(=O)N(C)Cc1cc(-c2ccc(OC(F)(F)F)cc2)c2ncoc2c1[C@@H](O)CO (single isomer, unassigned) [Compound 108]
- pIC50 [1]: 6.89
- pIC50 [2]: 7.62
- pIC50 [3]: 7.12
- pIC50 [4]: 7.33

Compound: C=CC(=O)NCc1cc(-c2ccc(C(F)(F)F)cc2)c2ncoc2c1[C@H](O)CO (single isomer, unassigned) [Compound 109]
- pIC50 [1]: 6.82
- pIC50 [2]: 6.77
- pIC50 [3]: 7.24
- pIC50 [4]: 7.15

Compound: C=CC(=O)NCc1cc(-c2ccc(C(F)(F)F)cc2)c2ncoc2c1[C@@H](O)CO (single isomer, unassigned) [Compound 110]
- pIC50 [1]: 6.85
- pIC50 [2]: 6.59
- pIC50 [3]: 7.33
- pIC50 [4]: 6.01

Compound: C=CC(=O)NCc1cc(-c2ccc(OC(F)(F)F)cc2)c2ncn(C)c2c1[C@@H](C)O (single isomer, unassigned) [Compound 138]
- pIC50 [1]: 7.22
- pIC50 [2]: 7.04
- pIC50 [3]: 8.00
- pIC50 [4]: 5.44

Compound: C=CC(=O)NCc1cc(-c2ccc(OC(F)(F)F)cc2)c2ncn(C)c2c1[C@H](C)O (single isomer, unassigned) [Compound 139]
- pIC50 [1]: 6.80
- pIC50 [2]: 7.00
- pIC50 [3]: 8.17
- pIC50 [4]: 6.42

Compound: C=CC(=O)NCc1cc(Oc2ccc(C(F)(F)F)cc2)c2ncccc2c1[C@H](O)CO (single isomer, unassigned) [Compound 147]
- pIC50 [1]: 6.96
- pIC50 [2]: 6.05
- pIC50 [3]: 7.72
- pIC50 [4]: 6.21

Compound: C=CC(=O)NCc1cc(Oc2ccc(C(F)(F)F)cc2)c2ncccc2c1[C@@H](O)CO (single isomer, unassigned) [Compound 148]
- pIC50 [1]: 7.44
- pIC50 [2]: 6.27
- pIC50 [3]: 8.06
- pIC50 [4]: 6.33

Compound: C=CC(=O)NCc1cc(-c2ccc(S(F)(F)(F)(F)F)cc2)c2c(c1[C@H](O)CO)CCO2 (stereo in doubt) [Compound 96, N-[[7-[4-(Pentafluoro-6-sulfanyl)phenyl]-4-[rac-(1R)-l,2-dihydroxyethyl]-2,3-dihydrobenzofuran-5-yl]methyl]prop-2-enamide]
- pIC50 [1]: 7.37
- pIC50 [2]: 7.64
- pIC50 [3]: 7.48
- pIC50 [4]: 7.14

Compound: C=CC(=O)NCc1cc(-c2ccc(S(F)(F)(F)(F)F)cc2)c2c(c1[C@@H](O)CO)CCO2 (stereo in doubt) [Compound 97, N-[[7-[4-(pentafluoro-6-sulfanyl)phenyl]-4-[rac-(1S)-1,2-dihydroxyethyl]-2,3-dihydrobenzofuran-5-yl]methyl]prop-2-enamide]
- pIC50 [1]: 7.57
- pIC50 [2]: 7.74
- pIC50 [3]: 7.72
- pIC50 [4]: 6.23

Compound: C=CC(=O)NCc1cc(-c2ccc(OC(F)(F)F)cc2)c2nccn2c1CO [Compound 5, N-((5-(hydroxymethyl)-8-(4-(trifluoromethoxy)phenyl)imidazo[1,2-a]pyridin-6-yl)methyl)acrylamide]
- pIC50 [1]: 6.90
- pIC50 [2]: 6.57
- pIC50 [3]: 6.64
- pIC50 [4]: 6.54

Compound: C=CC(=O)NCc1nc(-c2ccc(OC(F)(F)F)cc2)c2ccccc2n1 [Compound 7, N-((4-(4-(trifluoromethoxy)phenyl)quinazolin-2-yl)methyl)acrylamide]
- pIC50 [1]: 7.74
- pIC50 [2]: 7.40
- pIC50 [3]: 6.19
- pIC50 [4]: 6.64

Compound: C=CC(=O)NCc1nc(-c2ccc(OC(F)(F)F)cc2)c2occc2n1 [Compound 10, N-[[4-[4-(trifluoromethoxy)phenyl]furo[3,2-d]pyrimidin-2-yl]methyl]prop-2-enamide]
- pIC50 [1]: 6.85
- pIC50 [2]: 7.03
- pIC50 [3]: 5.89
- pIC50 [4]: 6.39

Compound: C=CC(=O)N(C)Cc1nc(-c2ccc(OC(F)(F)F)cc2)c2ncsc2n1 [Compound 11, N-methyl-N-[[7-[4-(trifluoromethoxy)phenyl]thiazolo[5,4-d]pyrimidin-5-yl]methyl]prop-2-enamide]
- pIC50 [1]: 7.11
- pIC50 [2]: 8.09
- pIC50 [3]: 7.00
- pIC50 [4]: 7.13

Compound: C=CC(=O)NCc1nc2c(c(-c3ccc(OC(F)(F)F)cc3)n1)OCC2 [Compound 13, N-[[4-[4-(trifluoromethoxy)phenyl]-6,7-dihydrofuro[3,2-d]pyrimidin-2-yl]methyl]prop-2-enamide]
- pIC50 [1]: 7.07
- pIC50 [2]: 7.46
- pIC50 [3]: 6.49
- pIC50 [4]: 6.77

Compound: C=CC(=O)NCc1cc(-c2ccc(OC(F)(F)F)cc2)c2ncccc2c1C#N [Compound 16, N-[[5-cyano-8-[4-(trifluoromethoxy)phenyl]-6-quinolyl]methyl]prop-2-enamide]
- pIC50 [1]: 7.62
- pIC50 [2]: 7.43
- pIC50 [3]: 7.29
- pIC50 [4]: 7.43

Compound: C=CC(=O)NCc1cc(-c2ccc(OC(F)(F)F)cc2)c2c(c1-n1ccnc1)CCO2 [Compound 23, N-((4-(1H-Imidazol-1-yl)-7-(4-(trifluoromethoxy)phenyl)-2,3-dihydrobenzofuran-5-yl)methyl)acrylamide]
- pIC50 [1]: 6.16
- pIC50 [2]: 6.80
- pIC50 [3]: 6.43
- pIC50 [4]: 5.41

Compound: C=CC(=O)NCc1cc(-c2ccc(S(F)(F)(F)(F)F)cc2)c2c(c1CO)CCO2 [Compound 24, N-((4-(Hydroxymethyl)-7-(4-(pentafluoro-16-sulfaneyl)phenyl)-2,3-dihydrobenzofuran-5-yl)methyl)acrylamide]
- pIC50 [1]: 7.49
- pIC50 [2]: 7.57
- pIC50 [3]: 6.92
- pIC50 [4]: 7.41

Compound: C=CC(=O)NCc1cc(-c2ccc(OC(F)(F)F)cc2)c2nccn2c1CC [Compound 26, N-((5-ethyl-8-(4-(trifluoromethoxy)phenyl)imidazo[1,2-a]pyridin-6-yl)methyl)acrylamide]
- pIC50 [1]: 6.85
- pIC50 [2]: 6.74
- pIC50 [3]: 7.21
- pIC50 [4]: 6.29

Compound: C=CC(=O)NCc1cc(-c2ccc(OC(F)(F)F)cc2)c2ncn(C)c2c1Cc1cn[nH]c1 [Compound 34, N-[[3-methyl-4-(1H-pyrazol-4-ylmethyl)-7-[4-(trifluoromethoxy)phenyl]benzimidazol-5-yl]methyl]prop-2-enamide]
- pIC50 [1]: 6.72
- pIC50 [2]: 7.21
- pIC50 [3]: 7.23
- pIC50 [4]: 5.44

Compound: C=CC(=O)NCc1nc(-c2ccc(OC(F)(F)F)cc2)c2nc(C)sc2n1 [Compound 35, N-[[2-methyl-7-[4-(trifluoromethoxy)phenyl]thiazolo[5,4-d]pyrimidin-5-yl]methyl]prop-2-enamide]
- pIC50 [1]: 7.96
- pIC50 [2]: 6.48
- pIC50 [3]: 6.14
- pIC50 [4]: 6.10

Compound: C=CC(=O)N(C)Cc1cc(-c2ccc(OC(F)(F)F)cc2)c2nccn2c1CO [Compound 36, N-[[5-(hydroxymethyl)-8-[4-(trifluoromethoxy)phenyl]imidazo[1,2-a]pyridin-6-yl]methyl]-N-methyl-prop-2-enamide]
- pIC50 [1]: 7.36
- pIC50 [2]: 7.43
- pIC50 [3]: 7.00
- pIC50 [4]: 7.05

Compound: C=CC(=O)NCc1cc(-c2ccc(OC(F)(F)F)cc2)c2nccn2c1 [Compound 37, N-[[8-[4-(trifluoromethoxy)phenyl]imidazo[1,2-a]pyridin-6-yl]methyl]prop-2-enamide]
- pIC50 [1]: 7.00
- pIC50 [2]: 7.09
- pIC50 [3]: 6.02
- pIC50 [4]: 6.64
